Type in all cases: functional
Assay [1] concerns MDA-MB-435. Nature of the assay: Cytotoxicity against human MDA-MB-435 cells assessed as cellular growth at 10 uM by SRB assay. (The SRB assay estimates cell density from bound dye.)
Assay [2] deals with K562. Nature of the assay: Cytotoxicity against human K562 cells assessed as cellular growth at 10 uM by SRB assay.
For assay [3], the system named is LOX IMVI. Nature of the assay: Cytotoxicity against human LOXIMVI cells assessed as cellular growth at 10 uM by SRB assay.
For assay [4], the system named is ACHN. Kind of assay: Cytotoxicity against human ACHN cells assessed as cellular growth at 10 uM by SRB assay.
In assay [5] the test system is SF-539. Nature of the assay: Cytotoxicity against human SF539 cells assessed as cellular growth at 10 uM by SRB assay.
The subject of assay [6] is CAKI-1. Nature of the assay: Cytotoxicity against human Caki1 cells assessed as cellular growth at 10 uM by SRB assay.
Assay [7] concerns HOP-62. Nature of the assay: Cytotoxicity against human HOP62 cells assessed as cellular growth at 10 uM by SRB assay.
For assay [8], the system named is MOLT-4. Kind of assay: Cytotoxicity against human MOLT4 cells assessed as cellular growth at 10 uM by SRB assay.
For assay [9], the system named is NCI-H226. Nature of the assay: Cytotoxicity against human NCI-H226 cells assessed as cellular growth at 10 uM by SRB assay.
The test system of assay [10] is HT-29. Nature of the assay: Cytotoxicity against human HT-29 cells assessed as cellular growth at 10 uM by SRB assay.
Assay [11] deals with M14. Kind of assay: Cytotoxicity against human M14 cells assessed as cellular growth at 10 uM by SRB assay.
The subject of assay [12] is SF-268. Nature of the assay: Cytotoxicity against human SF268 cells assessed as cellular growth at 10 uM by SRB assay.
Assay [13] concerns HCT-116. Kind of assay: Cytotoxicity against human HCT116 cells assessed as cellular growth at 10 uM by SRB assay.
The subject of assay [14] is SW-620. Nature of the assay: Cytotoxicity against human SW620 cells assessed as cellular growth at 10 uM by SRB assay.
The subject of assay [15] is Malme-3M. Kind of assay: Cytotoxicity against human MALME-3M cells assessed as cellular growth at 10 uM by SRB assay.
The test system of assay [16] is Hs-578T. Kind of assay: Cytotoxicity against human Hs578T cells assessed as cellular growth at 10 uM by SRB assay.
The subject of assay [17] is HL-60(TB). Kind of assay: Cytotoxicity against human HL-60(TB) cells assessed as cellular growth at 10 uM by SRB assay.
Assay [18] concerns MDA-MB-231. Kind of assay: Cytotoxicity against human MDA-MB-231 cells assessed as cellular growth at 10 uM by SRB assay.
Assay [19] has as its system OVCAR-3. Nature of the assay: Cytotoxicity against human OVCAR3 cells assessed as cellular growth at 10 uM by SRB assay.
Assay [20] deals with SK-MEL-28. Kind of assay: Cytotoxicity against human SK-MEL-28 cells assessed as cellular growth at 10 uM by SRB assay.

Each structure is given as a SMILES string.

For `CC1(C)CCc2cc(-c3ccn(S(=O)(=O)c4ccccc4Cl)n3)ccc2O1`, the Activity in assay [1] is 98.73%; in assay [2], 43%; in [3] it was 83.91%; in assay [4] it was 98.39%; in assay [5], 87.92%; in assay [6], 101.05%. For the same compound, the Activity in assay [7] amounted to 96.86%; in assay [8], 64.66%; in assay [9], 90.58%; in [10], 33.37%; in assay [11], 78.84%; in assay [12], 96.38%. Moreover, the Activity is on record as 68.63% in [13]; 79.15% in [14]; 98.68% in assay [15]; 102.19% in [16]; 81.19% in assay [17]; 99.59% in assay [18]. Further, the Activity in [19] worked out at 93.06%; in assay [20], 99.8%.

Regarding `Nc1c(C(=O)Nc2ccc(Cl)c(Cl)c2)sc2nc(-c3cccs3)ccc12`, the Activity in [1] is recorded as 83.41%; in assay [2] it was 86.57%; in [3], 43.3%; in [4], 99.6%; in assay [5], 79.24%; in assay [6] it was 95.41%. Besides, the Activity amounted to 100.28% in [7]; 83.49% in [8]; 96.17% in assay [9]; 87.42% in assay [10]; 87.97% in [11]; 85.77% in assay [12]. Besides, the Activity in [13] turned out to be 75.19%; in [14], 105.33%; in assay [15], 90.04%; in assay [16], 129.34%; in assay [17], 99.11%; in [18] it was 84.38%. Moreover, the Activity in assay [19] is on record as 100.29%; in assay [20], 97.42%.

On to `Cc1ccc2c(c1)N/C(=C/C(=O)c1ccc(Cl)cc1)C(=O)O2`, for which the Activity in [1] worked out at 105.53%; in [2], 99.7%; in [3], 100.45%; in assay [4], 103.68%; in assay [5] it was 106.89%; in assay [6] it was 105.93%. The Activity in assay [7] is listed as 113.93%; in [8], 86.91%; in assay [9], 105.28%; in [10] it was 105.84%; in assay [11], 108.88%; in assay [12], 105.3%. Moreover, the Activity is 105.71% in assay [13]; 114.93% in assay [14]; 99.95% in assay [15]; 113.45% in [16]; 97.02% in assay [17]; 86.67% in [18]. The Activity in assay [19] is 119.21%; in assay [20] it was 116.13%.

`Cc1ccccc1NC(=O)c1sc2nc3c(cc2c1N)C(=O)CCC3`: the Activity in [1] is recorded as -12.89%; in assay [2], 22.15%; in [3], 47.43%; in [4], 49.27%; in assay [5], 27.63%; in assay [6], 55.35%. Moreover, the Activity is 38.2% in assay [7]; 67.51% in [8]; 65.79% in [9]; 21.08% in [10]; 41.54% in assay [11]; 65.36% in assay [12]. Also, the Activity was determined as 34.55% in assay [13]; 25.37% in assay [14]; 66.45% in assay [15]; 25.78% in assay [16]; 36.05% in assay [17]; 61.61% in assay [18]. Moreover, the Activity is recorded as 4.33% in assay [19] and 52.79% in [20].

In the case of `Cc1ccc(S(=O)(=O)Oc2ccc(-c3cnc4ccccc4n3)cc2)cc1`, the Activity is 96.62% in [1]; 84.2% in assay [2]; 99.82% in [3]; 102.63% in assay [4]; 113.49% in [5]; 92.87% in assay [6]. The Activity was determined as 114.36% in [7]; 89.3% in [8]; 99.19% in assay [9]; 89.62% in [10]; 123.34% in assay [11]; 118.59% in assay [12]. In addition, the Activity in assay [13] stood at 106.69%; in [14], 103.63%; in [15], 122.99%; in [16] it was 110.2%; in assay [17], 109.83%; in assay [18], 111.87%. The Activity is 115.17% in [19] and 113.2% in assay [20].

Regarding `Cc1ccc(C2=N/C(=C\c3ccccc3)C(=O)O2)cc1`, the Activity in [1] worked out at 102.12%; in [2], 106.22%; in assay [3] it was 105.76%; in assay [4], 104.91%; in assay [5], 103.23%; in [6], 101.22%. Besides, the Activity was 108.81% in assay [7]; 91.17% in assay [8]; 102% in assay [9]; 107.8% in assay [10]; 108.05% in assay [11]; 98.83% in [12]. The Activity in assay [13] amounted to 114.29%; in assay [14], 102.61%; in [15] it was 105.62%; in assay [16], 96.01%; in assay [17] it was 95.82%; in assay [18] it was 105.18%. Further, the Activity in assay [19] is reported as 105.55%; in [20], 105.81%.

As for `O=C(Nc1ccc2oc(=O)ccc2c1)c1ccc(-c2ccc(Cl)c(Cl)c2)o1`, the Activity in assay [1] was 88.86%; in [2] it was 65.27%; in assay [3], 47.73%; in assay [4] it was 78.44%; in [5] it was 90.55%; in assay [6], 87.9%. The Activity in assay [7] turned out to be 109.12%; in [8], 73.02%; in assay [9], 92.4%; in assay [10], 92.94%; in assay [11], 100.99%; in [12], 85.02%. Moreover, the Activity in assay [13] came to 57.64%; in assay [14] it was 100.55%; in [15] it was 100.19%; in assay [16] it was 145.42%; in [17] it was 85.04%; in assay [18] it was 86.89%. Also, the results for the Activity in assay [19] and in assay [20] were 102.55% and 101.23%, respectively.

As to `CC1(C)CC(=O)c2cc3c(N)c(C(=O)Nc4ccc(Cl)cc4)sc3nc2C1`, the Activity amounted to 108.85% in assay [1]; 107.2% in assay [2]; 108.76% in assay [3]; 116.88% in [4]; 114.18% in assay [5]; 134.14% in [6]. Besides, the Activity stood at 108.35% in [7]; 104% in assay [8]; 108.39% in assay [9]; 96.43% in [10]; 107.38% in assay [11]; 124.88% in assay [12]. Also, the Activity in assay [13] is 108.43%; in assay [14], 108.54%; in [15], 119.36%; in assay [16], 108.83%; in assay [17], 107.32%; in assay [18], 114.95%. Also, the Activity in assay [19] was 111.21%; in [20] it was 118.07%.

As for `Nc1c(C(=O)Nc2ccccc2)sc2nc3c(cc12)C(=O)CCC3`, the Activity was -5.95% in [1]; 17.06% in assay [2]; 51.19% in assay [3]; 49.71% in assay [4]; 0.84% in assay [5]; 54.68% in assay [6]. Also, the Activity in assay [7] turned out to be 39.88%; in assay [8], 43.43%; in assay [9], 68%; in [10] it was 4.34%; in assay [11], 1.11%; in [12], 53.38%. For the same compound, the Activity is 23.57% in assay [13]; 27.25% in assay [14]; 76.23% in assay [15]; 37.53% in assay [16]; 19.38% in [17]; 52.08% in assay [18]. The Activity is recorded as -19.35% in [19] and 58.69% in assay [20].

In the case of `COc1ccc2nc(NC(=O)c3ccc(F)cc3)sc2c1`, the Activity in assay [1] turned out to be 96.73%; in assay [2], 82.42%; in assay [3], 102.03%; in [4], 88.79%; in assay [5] it was 97.47%; in [6], 79.13%. In addition, the Activity came out at 108.23% in assay [7]; 87.45% in [8]; 92.48% in assay [9]; 90.2% in [10]; 106.56% in assay [11]; 106.57% in [12]. Besides, the Activity in [13] amounted to 95.31%; in assay [14], 101.19%; in assay [15], 92.36%; in assay [16], 114.71%; in assay [17], 108.33%; in [18], 116.29%. Besides, the Activity is given as 101.58% in [19] and 110.86% in assay [20].

Consider `N#Cc1ccc(NC(=O)c2sc3nc4c(cc3c2N)C(=O)CCC4)cc1`, for which the Activity in assay [1] is 97.44%; in assay [2] it was 108.42%; in [3] it was 111.96%; in [4] it was 107.57%; in assay [5] it was 99.77%; in assay [6], 93.27%. The Activity in assay [7] is reported as 100.94%; in assay [8] it was 114.77%; in [9] it was 93.7%; in assay [10] it was 84.91%; in [11] it was 105.98%; in assay [12], 102.29%. In addition, the Activity in assay [13] was 107.92%; in assay [14], 98.14%; in assay [15], 89.34%; in [16] it was 110.8%; in assay [17], 81.02%; in assay [18], 109.01%. The Activity in assay [19] worked out at 113.89%; in [20], 105.89%.

Values taken from ChEMBL document CHEMBL2202954, “The effect of PLC-γ2 inhibitors on the growth of human tumour cells” (2012).
